Experimental data taken from the supplement of paper PMC11208160.

Test: recombinant barcode read abundance after kanamycin selection (control-corrected) (log10(CPM+1)); higher = more efficient recombination; sequences stand for … in AGTGCAGAGAAAATCGGCCAGTTTTCTCTGCCTGCAGTCCGCATGCCGT…AGATTTATGCAGCGGACTGCCTTTCTCCCAAAGTGATAAACCGGACAGTATCATGGACCGGTTTTCCCGGTAATCCGTATTTGCAAGGTTGGTTTCACT; site = the 11-nt target
Summary of the method: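 The screen was pooled in E. coli and paired targets with IS621 bridge RNA target-binding loops. Recombination efficiency is taken from barcode counts per million at recombinant junctions, averaged and adjusted against the control. Values, in the form log10(CPM+1), come from duplicate plating on chloramphenicol/ampicillin LB agar or on chloramphenicol/ampicillin/kanamycin with 0.1 mM IPTG.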
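Further: IS621 recombinase and bridge RNA in Escherichia coli cells.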

Row | Sequence | recombinant barcode read abundance (log10)
1 | CTCGCTCCTTGGGTTCTAACCTGTTGCTG (site AATAAGTCTAT) | 0.102
2 | CTCGCTCCTTGGGTTCTAACCTGTTGCTG (site CTCGCTCCTCA) | 0.563
3 | CTCGGAGCTTGGGTTCTAACCTGTTGCCT (site CTCGGAACTAG) | 0.499
4 | CTCGGAGCTTGGGTTCTAACCTGTTGCCT (site CTCGGACCTAG) | 0.0847
5 | CTCGGAGCTTGGGTTCTAACCTGTTGCCT (site CTCGGAGCTAG) | 1.04
6 | CTCGGAGCTTGGGTTCTAACCTGTTGCCT (site CTCGGATCTAG) | 0.311
7 | CTCGGATCTTGGGTTCTAACCTGTTGCTT (site CTCGGATCTAA) | 1.38
8 | CTCGGATCTTGGGTTCTAACCTGTTGCTT (site CTCGGATCTCA) | 0.0569
9 | CTCGGATCTTGGGTTCTAACCTGTTGCTT (site CTCGGATCTGA) | 0.0569
10 | CTCGGATCTTGGGTTCTAACCTGTTGCTT (site CTCGGATCTTA) | 0.371
11 | CTCTAAACTTGGGTTCTAACCTGTTGCCG (site CTCATAACTCG) | 0.132
12 | CTCTAAACTTGGGTTCTAACCTGTTGCCG (site CTCTAAACTCG) | 0.311
13 | CTCTACCCTTGGGTTCTAACCTGTTGCGT (site CTCTAACCTAC) | 0.272
14 | CTCTACCCTTGGGTTCTAACCTGTTGCGT (site CTCTACCCTAC) | 0.589
15 | CTCTACCCTTGGGTTCTAACCTGTTGCGT (site CTCTAGCCTAC) | 0.0363
16 | CTCTACCCTTGGGTTCTAACCTGTTGCGT (site CTCTATCCTAC) | 0.0916
17 | CTCTAGACTTGGGTTCTAACCTGTTGCGT (site CTCTAGACTAC) | 2.01
18 | CTCTAGACTTGGGTTCTAACCTGTTGCGT (site CTTTAGACTAT) | 0.211
19 | CTCTATTCTTGGGTTCTAACCTGTTGCAT (site CTCAATTCTAT) | 0.262
20 | CTCTATTCTTGGGTTCTAACCTGTTGCAT (site CTCCATTCTAT) | 0.16
21 | CTCTATTCTTGGGTTCTAACCTGTTGCAT (site CTCGATTCTAT) | 0.161
22 | CTCTATTCTTGGGTTCTAACCTGTTGCAT (site CTCTATTCTAT) | 0.242

Row | Sequence | recombinant barcode read abundance (log10)
23 | CTCTCATCTTGGGTTCTAACCTGTTGCTT (site CTCTCATCTAA) | 0.0308
24 | CTCTCATCTTGGGTTCTAACCTGTTGCTT (site CTCTCATCTAG) | 0.232
25 | CTCTCGCCTTGGGTTCTAACCTGTTGCCT (site CTATCGCCTAG) | 0
26 | CTCTCGCCTTGGGTTCTAACCTGTTGCCT (site CTCTCGCCTAG) | 0.168
27 | CTCTCGCCTTGGGTTCTAACCTGTTGCCT (site CTGTCGCCTAG) | 0.0587
28 | CTCTCGCCTTGGGTTCTAACCTGTTGCCT (site CTTTCGCCTAG) | 0.0266
29 | CTCTCGGCTTGGGTTCTAACCTGTTGCCT (site CTCTAGGCTAG) | 0.494
30 | CTCTCGGCTTGGGTTCTAACCTGTTGCCT (site CTCTCGGCTAG) | 0.865
31 | CTCTCGGCTTGGGTTCTAACCTGTTGCCT (site CTCTGGGCTAG) | 0.138
32 | CTCTCGGCTTGGGTTCTAACCTGTTGCCT (site CTCTTGGCTAG) | 0.0157
33 | CTCTGCTCTTGGGTTCTAACCTGTTGCTC (site CTCTGCTCTGA) | 0.724
34 | CTCTGCTCTTGGGTTCTAACCTGTTGCTC (site GCTGAGGCTTG) | 0
35 | CTCTGTCCTTGGGTTCTAACCTGTTGCTA (site CTCTGTCCTTA) | 0.346
36 | CTCTGTCCTTGGGTTCTAACCTGTTGCTA (site CTCTGTCCTTG) | 0.0487
37 | CTCTTAACTTGGGTTCTAACCTGTTGCTA (site CTCTTAACTTA) | 0.128
38 | CTCTTAACTTGGGTTCTAACCTGTTGCTA (site CTCTTAGCTTT) | 0.134
39 | CTCTTGACTTGGGTTCTAACCTGTTGCTT (site CTCTGGACTAA) | 0.0764
40 | CTCTTGACTTGGGTTCTAACCTGTTGCTT (site CTCTTGACTAA) | 0.871
41 | CTGAGCCCTTGGGTTCTAACCTGTTGCCG (site CTAAGCCCTCC) | 0.239
42 | CTGAGCCCTTGGGTTCTAACCTGTTGCCG (site CTGAGCCCTCG) | 1.08
43 | CTGAGGCCTTGGGTTCTAACCTGTTGCCT (site ATGAGGCCTAG) | 0.226
44 | CTGAGGCCTTGGGTTCTAACCTGTTGCCT (site CTGAGGCCTAG) | 0.497

Row | Sequence | recombinant barcode read abundance (log10)
45 | CTGAGGCCTTGGGTTCTAACCTGTTGCCT (site GTGAGGCCTAG) | 0.11
46 | CTGAGGCCTTGGGTTCTAACCTGTTGCCT (site TTGAGGCCTAG) | 0.299
47 | CTGATAACTTGGGTTCTAACCTGTTGCCT (site CTGATAACTAG) | 1.02
48 | CTGATAACTTGGGTTCTAACCTGTTGCCT (site CTGATCACTAG) | 0.279
49 | CTGATAACTTGGGTTCTAACCTGTTGCCT (site CTGATGACTAG) | 0.0814
50 | CTGATAACTTGGGTTCTAACCTGTTGCCT (site CTGATTACTAG) | 0.136
51 | CTGCCCGCTTGGGTTCTAACCTGTTGCCT (site CTGCCCGCTAG) | 0.667
52 | CTGCCCGCTTGGGTTCTAACCTGTTGCCT (site GTGCTCGCTAG) | 0.366
53 | CTGCCCTCTTGGGTTCTAACCTGTTGCCT (site CAGCCCTCTAG) | 0.932
54 | CTGCCCTCTTGGGTTCTAACCTGTTGCCT (site CCGCCCTCTAG) | 0.179
55 | CTGCCCTCTTGGGTTCTAACCTGTTGCCT (site CGGCCCTCTAG) | 0.0113
56 | CTGCCCTCTTGGGTTCTAACCTGTTGCCT (site CTGCCCTCTAG) | 1.74
57 | CTGCGCTCTTGGGTTCTAACCTGTTGCAT (site CTGCGCTCTAT) | 1.22
58 | CTGCGCTCTTGGGTTCTAACCTGTTGCAT (site TGTGAGCCTTC) | 0.0268
59 | CTGCGGTCTTGGGTTCTAACCTGTTGCAT (site ATGCGGTCTAG) | 0.138
60 | CTGCGGTCTTGGGTTCTAACCTGTTGCAT (site CTGCGGTCTAT) | 1.7
61 | CTGCGTACTTGGGTTCTAACCTGTTGCCG (site CTGCGTACTCG) | 0.365
62 | CTGCGTACTTGGGTTCTAACCTGTTGCCG (site TCCAAGGCTTA) | 0.0663
63 | CTGCGTCCTTGGGTTCTAACCTGTTGCCT (site CTCCGTCCTAG) | 0.121
64 | CTGCGTCCTTGGGTTCTAACCTGTTGCCT (site CTGCGTCCTAG) | 0.671
65 | CTGGAAACTTGGGTTCTAACCTGTTGCCT (site CGGGTAACTAG) | 0.0164
66 | CTGGAAACTTGGGTTCTAACCTGTTGCCT (site CTGGAAACTAG) | 1.23

Row | Sequence | recombinant barcode read abundance (log10)
67 | CTGGACACTTGGGTTCTAACCTGTTGCCT (site CTAGACACTAG) | 1.94
68 | CTGGACACTTGGGTTCTAACCTGTTGCCT (site CTCGACACTAG) | 0.0566
69 | CTGGACACTTGGGTTCTAACCTGTTGCCT (site CTGGACACTAG) | 1.83
70 | CTGGACACTTGGGTTCTAACCTGTTGCCT (site CTTGACACTAG) | 0.329
71 | CTGGGCACTTGGGTTCTAACCTGTTGCCT (site CGGGGCACTAG) | 0.164
72 | CTGGGCACTTGGGTTCTAACCTGTTGCCT (site CTGGGCACTAG) | 0.395
73 | CTGGGCCCTTGGGTTCTAACCTGTTGCCT (site CTGAGCCCTAG) | 0.12
74 | CTGGGCCCTTGGGTTCTAACCTGTTGCCT (site CTGCGCCCTAG) | 0.0544
75 | CTGGGCCCTTGGGTTCTAACCTGTTGCCT (site CTGGGCCCTAG) | 0.277
76 | CTGGGCCCTTGGGTTCTAACCTGTTGCCT (site CTGTGCCCTAG) | 0.214
77 | CTGGGTCCTTGGGTTCTAACCTGTTGCTT (site CTGGGTCCTAA) | 1.48
78 | CTGGGTCCTTGGGTTCTAACCTGTTGCTT (site CTTGGTTCTAA) | 0.179
79 | CTGGTTCCTTGGGTTCTAACCTGTTGCCT (site CTGGCTCCTAA) | 0.874
80 | CTGGTTCCTTGGGTTCTAACCTGTTGCCT (site CTGGTTCCTAG) | 1.2
81 | CTGTTGTCTTGGGTTCTAACCTGTTGCCA (site CTGATGTCTTG) | 0.204
82 | CTGTTGTCTTGGGTTCTAACCTGTTGCCA (site CTGCTGTCTTG) | 0.00714
83 | CTGTTGTCTTGGGTTCTAACCTGTTGCCA (site CTGGTGTCTTG) | 0.0643
84 | CTGTTGTCTTGGGTTCTAACCTGTTGCCA (site CTGTTGTCTTG) | 0.487
85 | CTTACAGCTTGGGTTCTAACCTGTTGCCT (site CTTACAGCTAG) | 0.644
86 | CTTACAGCTTGGGTTCTAACCTGTTGCCT (site CTTACCGCTAG) | 0.138
